{"source": "patent US12622880B2", "about": "“Therapeutic system for the topical, transdermal and transcutaneous application of carbon monoxide” (Julius-Maximilians-Universitaet Wuerzburg, priority 2020, dated 2026)", "assay": "CO release through pig ear skin", "type": "in vitro ADME", "description": "Pig ear skin was purchased from a butcher and prepared immediately after delivery. Skin was carefully removed from the remaining fat and cartilage. Subsequent to the preparation, the skin was clamped between the top and bottom compartment of the test cell. Sealing was ensured by screw clamps and a sealing ring (FIG. 5A).\nFor the experiment 15 mg of tri-sodium Beck-1 ((Mo(CO)3(CNCH2CO2Na)3) were placed in the bottom compartment of the test cell and dissolved in 4 mL H2O. CO release was activated by adding 1 mL of iron(III)chloride solution (350 mg/mL) to the tri-sodium Beck-1. CO release through the pig skin was measured over a time period of 1000 minutes.\nThe data shown in FIG. 6 illustrates that CO release trough the pig skin is a slow process and reaches plateau in the raw data at around 500 minutes and stays at that plateau of 200 ppm CO for another 500 minutes until the end of the experiment. A plateau in the raw data means that the sensor consumption of CO is at the same rate as the release through the skin. To correct for the sensor consumption, CO release data of tri-sodium Beck-1 without any limiting membranes were used to calculate the consumption rate of the sensor."}
{"smiles": "[C-]#[O+]", "note": "[CO, carbon monoxide]", "values": [{"measurement": "CO release through the pig skin, maximum in the corrected data", "setting": "15 mg tri-sodium Beck-1 activated with iron(III)chloride, at 1000 minutes, corrected for sensor consumption of CO", "result": 340, "unit": "ppm"}, {"measurement": "CO release through the pig skin, plateau in the raw data", "setting": "15 mg tri-sodium Beck-1 in 4 mL H2O activated with 1 mL iron(III)chloride solution (350 mg/mL), averaged raw data (n=2), plateau held until 1000 minutes", "result": 200, "unit": "ppm"}, {"measurement": "time at which CO release through the pig skin reaches plateau in the raw data", "setting": "15 mg tri-sodium Beck-1 in 4 mL H2O activated with 1 mL iron(III)chloride solution (350 mg/mL), raw data", "result": "around 500 minutes"}]}
